From publication PMC3790851, “Improved Mass Spectrometry Assay For Plasma Hepcidin: Detection and Characterization of a Novel Hepcidin Isoform” (PLoS ONE, 2013)

Tests used:
[1] = Effect of solvent of hepcidin-25^+40 on loss of peptide and hepcidin-25 value assignment; type: physicochemical
Method: Heavy hepcidin-25^+40 (hepcidin-25^+40 Da; DTHF(^13C9,^15N)P(^13C5,^15N)I(^13C6,^15N)CI(^13C6,^15N) F(^13C9,^15N)CCG(^15N)CCHRSKCGMCCKT disulfide bridged) was obtained from Peptides International (Table 1). Note that due to an isotope content of 98% the actual mass is 1 Da less than the theoretical mass of this peptide. Freeze dried hepcidin-25^+40 was dissolved in H2O in accordance with the manual. An 0.1 nmol/L solution of hepcidin-25^+40 was aliquoted in 12 µL volumes in 200 µL polypropylene tubes and stored at −80°C until use.
As quantification of native hepcidin in a sample is related to the known concentration of the spiked internal standard, the absolute levels of measured hepcidin are highly dependent on the value assignment of the used internal standard. One determining factor concerns proper dissolvent of the lyophilized peptide and whether or not a substantial amount of the internal standard is lost by aggregation or sticking to laboratory plastics during its preparation. Therefore, we compared the effects of three different solvents to prepare hepcidin-25^+40 stock solutions on the measured hepcidin-25 concentration of a series of spiked blank serum samples to which known hepcidin-25 concentrations were added. […] This finding implicates that use of 5% phosphoric acid leads to loss of about 50% of the peptide, while this seems to be the case for about 15% of the peptide when water is used. […] Therefore, 20% acetonitrile was implemented as solvent for the internal standard in our standard operating procedure, which was used throughout the remainder of this study.
Figure 1 Effect on the solvent of hepcidin-25^+40 on hepcidin-25 linearity and value assignment. […] Linearity of measured hepcidin-25 was determined by the formulas: Y = 1.822X+0.097 (5% phosphoric acid); Y = 1.119X+0.494 (water); Y = 0.964X+0.069 (20% acn).

[2] = serum, healthy controls; cited from earlier work
Excerpt: We observed no differences between the various anticoagulants used. We observed, however, a small non significant decrease of hepcidin-25 upon freezing (e.g. for heparin samples at 7 days: total intensive care and control (n = 15): 95% (CV 8%) relative to fresh samples, Table S3). […] However, it should be noted that the reproducibility of the measurements of the smaller isoforms at low concentrations is low, especially the measurements of hepcidin-20 in EDTA plasma samples (Table 2, Table S3). Thus, hepcidin measurements by WCX-TOF MS are no ...

[3] = parameters: method as in PMID 22222553; settings: serum, 12 healthy controls; cited from earlier work
[4] = at least; cited from earlier work
Method: We conclude that hepcidin-25 results are not changed during 2 years of storage at −80°C, except for a possible small decrease upon freezing. However, after 2 years storage at −80°C, hepcidin results become less precise and individual measurements might become less reliable. Average results for a population may not be affected, but existing differences in hepcidin levels between groups, or correlations of hepcidin with other parameters might be more difficult to assess.

Substance: DTHF(^13C9,^15N)P(^13C5,^15N)I(^13C6,^15N)CI(^13C6,^15N) F(^13C9,^15N)CCG(^15N)CCHRSKCGMCCKT disulfide bridged (disulfide) [Hepcidin-25^+40, novel custom made heavy hepcidin-25 isotope, disulfide bridged, internal standard]
- loss of peptide on dissolution in 5% phosphoric acid ([1]; inferred from false high measured hepcidin-25 in spiked blank serum): about 50%
- loss of peptide on dissolution in water ([1]; inferred from measured hepcidin-25 in spiked blank serum): about 15%
- measured to nominal hepcidin-25 ratio, internal standard in 20% acetonitril ([1]; spiked blank serum): near 1∶1 ratio

Substance: hepcidin: hepcidin as measured in plasma or serum, isoform not specified at the place
- stability at -20°C [2]: ≥ 42 days
- stability at 4°C [3]: 6 days
- stability at -80°C [4]: 6–8 months
